In ChEMBL document CHEMBL1201862, “PubChem BioAssay data set” (2004):
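Cells were grown in 96-well plates and exposed to each compound for 48 hours at five concentrations; endpoints were interpolated linearly between bracketing concentrations, or set to the highest concentration if not reached. GI50 = concentration required for 50% inhibition of growth.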 Calls of active or inactive are those of the source. No stated cut-off is given here; in the data, active = GI50 up to about 1.1 µM and inactive = higher.

Tests used:
Assay in all cases: NCI tumour cell line growth inhibition, 48 h
MOLT-4 = system: MOLT-4
Hs-578T = system: Hs-578T
SK-MEL-28 = system: SK-MEL-28
A498 = system: A498
SW-620 = system: SW-620
SF-539 = system: SF-539
786-0 = system: 786-0
HOP-92 = system: HOP-92
SK-MEL-2 = system: SK-MEL-2
OVCAR-4 = system: OVCAR-4
SF-268 = system: SF-268
HCT-15 = system: HCT-15
NCI/ADR-RES = system: NCI/ADR-RES
Malme-3M = system: Malme-3M
HOP-62 = system: HOP-62
HT-29 = system: HT-29
HCT-116 = system: HCT-116
OVCAR-8 = system: OVCAR-8
COLO 205 = system: COLO 205
NCI-H226 = system: NCI-H226

Compound | GI50 (MOLT-4) | GI50 (Hs-578T) | GI50 (SK-MEL-28) | GI50 (A498) | GI50 (SW-620) | GI50 (SF-539) | GI50 (786-0) | GI50 (HOP-92) | GI50 (SK-MEL-2) | GI50 (OVCAR-4) | GI50 (SF-268) | GI50 (HCT-15) [µM] | GI50 (NCI/ADR-RES) | GI50 (Malme-3M) | GI50 (HOP-62) | GI50 (HT-29) | GI50 (HCT-116) | GI50 (OVCAR-8) | GI50 (COLO 205) | GI50 (NCI-H226)
Cc1ccc(SCC(CF)OCn2cc(F)c(=O)[nH]c2=O)cc1 (stereo not drawn) | > 100 µM (inactive) | > 100 µM (inactive) | > 100 µM (inactive) | > 100 µM (inactive) | > 100 µM (inactive) | > 100 µM (inactive) | > 100 µM (inactive) | > 100 µM (inactive) | > 100 µM (inactive) | > 100 µM (inactive) | > 100 µM (inactive) | > 100 | > 100 µM (inactive) | > 100 µM (inactive) | > 100 µM (inactive) | > 100 µM (inactive) | > 100 µM (inactive) | > 100 µM (inactive) |  | 
CCOC(=O)c1ccc(Nc2nc3cc(C(F)(F)F)ccc3nc2C(=O)OCC)cc1 | > 100 µM (inactive) | > 100 µM (inactive) | > 100 µM (inactive) | 36.6 µM (inactive) | > 100 µM (inactive) | 50.9 µM (inactive) | 25.4 µM (inactive) | 50 µM (inactive) |  |  | 97.1 µM (inactive) | > 100 | > 100 µM (inactive) |  | 22 µM (inactive) | 84.1 µM (inactive) | 34.2 µM (inactive) | 51.6 µM (inactive) | 46.9 µM (inactive) | 
OCC1OC(n2cnc3cccnc32)CC1O (stereo not drawn) | > 100 µM (inactive) | > 100 µM (inactive) | > 100 µM (inactive) | > 100 µM (inactive) | > 100 µM (inactive) | > 100 µM (inactive) | > 100 µM (inactive) | > 100 µM (inactive) | > 100 µM (inactive) | > 100 µM (inactive) | > 100 µM (inactive) | > 100 | > 100 µM (inactive) |  | > 100 µM (inactive) | > 100 µM (inactive) | > 100 µM (inactive) | > 100 µM (inactive) | > 100 µM (inactive) | > 100 µM (inactive)
CC(=O)CCCCC(=O)Nc1ccc(CC(NC(=O)OC(C)(C)C)C(=O)NCC(=O)OCc2ccccc2)cc1 (stereo not drawn) | 24.1 µM (inactive) | 16.1 µM (inactive) | 19.3 µM (inactive) | 23.1 µM (inactive) | 16.6 µM (inactive) | 18.8 µM (inactive) | 21.7 µM (inactive) | 29.1 µM (inactive) |  | 13.7 µM (inactive) | 22.4 µM (inactive) | 62.8 | > 100 µM (inactive) | 19.3 µM (inactive) | 13.8 µM (inactive) | 19.6 µM (inactive) | 19.6 µM (inactive) | 20 µM (inactive) | 18.5 µM (inactive) | 34.8 µM (inactive)
N#CC1(C#N)N[C@@H](c2ccsc2)[C@H]2C(=O)N(c3ccccc3)C(=O)[C@H]21 | 36.7 µM (inactive) | 83.6 µM (inactive) | 77.8 µM (inactive) | 26.4 µM (inactive) | > 100 µM (inactive) |  | > 100 µM (inactive) | 65.2 µM (inactive) | > 100 µM (inactive) |  | 84.5 µM (inactive) |  | > 100 µM (inactive) | > 100 µM (inactive) | > 100 µM (inactive) | 85.5 µM (inactive) | 79.1 µM (inactive) | > 100 µM (inactive) | 93.8 µM (inactive) | > 100 µM (inactive)
C[C@H](C1CC(C)(O)C(C)(O)C(O)O1)[C@H]1CC[C@H]2[C@@H]3[C@@H]4O[C@@H]4[C@@]4(O)CC=CC(=O)[C@]4(C)[C@H]3CC[C@]12C (stereo partly drawn) | > 50 µM (inactive) | 0.039 µM (active) | > 50 µM (inactive) | 22.4 µM (inactive) | > 50 µM (inactive) |  | 15.5 µM (inactive) | 33.6 µM (inactive) | > 50 µM (inactive) | > 50 µM (inactive) | 5.31 µM (inactive) | > 50 | > 50 µM (inactive) | 2.67 µM (inactive) | 27.8 µM (inactive) | > 50 µM (inactive) | 36.9 µM (inactive) | 30.4 µM (inactive) | > 50 µM (inactive) | 22.9 µM (inactive)
CCOC(=O)c1nc2ccccc2nc1Nc1ccc(C(=O)OC)s1 | > 100 µM (inactive) | > 100 µM (inactive) | > 100 µM (inactive) | > 100 µM (inactive) | > 100 µM (inactive) | > 100 µM (inactive) | > 100 µM (inactive) | > 100 µM (inactive) | > 100 µM (inactive) | > 100 µM (inactive) | > 100 µM (inactive) | > 100 | > 100 µM (inactive) | 18.5 µM (inactive) | > 100 µM (inactive) | > 100 µM (inactive) | > 100 µM (inactive) | > 100 µM (inactive) | > 100 µM (inactive) | 
C[C@@H]1CCC2[C@@H](C)C(=O)O[C@@H]3C4C[C@@H]1[C@@]23OO[C@@]4(C)O (stereo partly drawn) | 72.1 µM (inactive) | > 100 µM (inactive) | > 100 µM (inactive) | > 100 µM (inactive) | > 100 µM (inactive) | 55.6 µM (inactive) | > 100 µM (inactive) | > 100 µM (inactive) | > 100 µM (inactive) | > 100 µM (inactive) | 76 µM (inactive) | > 100 | > 100 µM (inactive) | > 100 µM (inactive) | 48.3 µM (inactive) | > 100 µM (inactive) | 88.3 µM (inactive) | 82.8 µM (inactive) | > 100 µM (inactive) | 
Cc1cn2c(/C=C3/C(=O)Nc4ccccc43)c(-c3ccccc3)nc2s1 | > 100 µM (inactive) | 27.7 µM (inactive) | > 100 µM (inactive) | 72.3 µM (inactive) | 64.4 µM (inactive) | 19.2 µM (inactive) | 17.2 µM (inactive) | 36.5 µM (inactive) | 28.1 µM (inactive) |  | 31 µM (inactive) | > 100 | 37.5 µM (inactive) | > 100 µM (inactive) | 38.5 µM (inactive) | > 100 µM (inactive) | 62.4 µM (inactive) | 54.3 µM (inactive) | > 100 µM (inactive) | 
CC(C)(C)OC(=O)NC(Cc1ccc(OCc2ccccc2)cn1)C(=O)N1CCCC1 (stereo not drawn) | 34.8 µM (inactive) | > 100 µM (inactive) | > 100 µM (inactive) | > 100 µM (inactive) | > 100 µM (inactive) | 23.2 µM (inactive) | > 100 µM (inactive) | > 100 µM (inactive) | > 100 µM (inactive) |  | 89.1 µM (inactive) | 74.3 | 25.1 µM (inactive) | 30.3 µM (inactive) | 23.5 µM (inactive) | 54 µM (inactive) | 79.3 µM (inactive) | 40.6 µM (inactive) | 68.9 µM (inactive) | 
O=C(NC(=S)Nc1ccc([N+](=O)[O-])cc1)c1ccc2c(c1)Sc1ccccc1O2 | > 100 µM (inactive) | 32.8 µM (inactive) | > 100 µM (inactive) | > 100 µM (inactive) | > 100 µM (inactive) | 45.7 µM (inactive) | 44.8 µM (inactive) | 37.3 µM (inactive) | 99.1 µM (inactive) |  | 30.2 µM (inactive) | > 100 | > 100 µM (inactive) | 65.8 µM (inactive) | 78.5 µM (inactive) | > 100 µM (inactive) | > 100 µM (inactive) | > 100 µM (inactive) | > 100 µM (inactive) | > 100 µM (inactive)
O=C(NNC(=O)c1ccco1)c1ccco1 | > 100 µM (inactive) | > 100 µM (inactive) | > 100 µM (inactive) | > 100 µM (inactive) | > 100 µM (inactive) | > 100 µM (inactive) | > 100 µM (inactive) |  | > 100 µM (inactive) | > 100 µM (inactive) | > 100 µM (inactive) | > 100 | > 100 µM (inactive) | 39.6 µM (inactive) | > 100 µM (inactive) | > 100 µM (inactive) | > 100 µM (inactive) | > 100 µM (inactive) | > 100 µM (inactive) | > 100 µM (inactive)
Cc1cc(O)nc(/N=C(\N)Nc2ccc(Cl)cc2)n1 | > 100 µM (inactive) | > 100 µM (inactive) | > 100 µM (inactive) | > 100 µM (inactive) | > 100 µM (inactive) |  | > 100 µM (inactive) | > 100 µM (inactive) | > 100 µM (inactive) |  | > 100 µM (inactive) | > 100 | > 100 µM (inactive) | > 100 µM (inactive) | > 100 µM (inactive) | > 100 µM (inactive) | > 100 µM (inactive) | > 100 µM (inactive) |  | > 100 µM (inactive)
CN1C(=O)CN(NC(=O)C2=C(O)c3ccc(Br)cc3S(=O)(=O)N2)C1=S | > 100 µM (inactive) | > 100 µM (inactive) | > 100 µM (inactive) | > 100 µM (inactive) | > 100 µM (inactive) |  | > 100 µM (inactive) | > 100 µM (inactive) | > 100 µM (inactive) | > 100 µM (inactive) | > 100 µM (inactive) | > 100 | > 100 µM (inactive) | 33.4 µM (inactive) | > 100 µM (inactive) | > 100 µM (inactive) | > 100 µM (inactive) | > 100 µM (inactive) | > 100 µM (inactive) | > 100 µM (inactive)
O=C(CCl)N1CCN(c2ccccn2)CC1 | 31.7 µM (inactive) | 42.8 µM (inactive) | 20 µM (inactive) | 17 µM (inactive) | 23.8 µM (inactive) |  | 18.4 µM (inactive) | 21.3 µM (inactive) |  | 15.6 µM (inactive) | 23.6 µM (inactive) | > 10 | 27.2 µM (inactive) | 16.8 µM (inactive) | 22.7 µM (inactive) | 17.7 µM (inactive) | 32.3 µM (inactive) | 26.2 µM (inactive) | 24.2 µM (inactive) | 
